These results are taken from patent publication US8637568B2, “Serotonin reuptake inhibitors” (Theravance, Inc., priority 2010, dated 2014).

The target of test [1] is T1, human recombinant serotonin transporter (hSERT) (Homo sapiens, UniProt P31645).
T1 construct: expressed in transfected cells; host or cells: HEK-293 (stably transfected), membrane preparation
Nature of the test: hSERT binding assay (3H-citalopram membrane radioligand binding). Particulars: inhibition of 3H-citalopram binding to membranes from HEK-293 cells expressing hSERT; Cheng-Prusoff; read-out: SERT pKi (converted). As for the experimental part: Protein concentration of the membrane suspension was determined using a Bio-Rad Bradford Protein Assay kit. Membranes were snap frozen and stored at −80° C.
Following a 60 minute incubation at 22° C. […] IC50 values were generated from concentration response curves using the Sigmoidal Dose Response (variable slope) algorithm in Prism GraphPad.

Test [2] deals with T2, human recombinant SERT (HEK293-hSERT cells) (Homo sapiens, UniProt P31645).
T2 construct: expressed in transfected cells; host or cells: HEK293 (stably transfected), whole cells
Nature of the test: hSERT neurotransmitter uptake assay. Format: cell-based. Conditions: serotonin reuptake inhibition in HEK293-hSERT cells; for IC50: read-out: SERT pIC50 (converted). As for the experimental part: HEK293 cells stably-transfected with human recombinant SERT (HEK293-hSERT) were grown in Dulbecco's Modified Eagle's Medium supplemented with 10% dialyzed fetal bovine serum, 100 µg/ml penicillin, 100 µg/ml streptomycin, 2 mM L-glutamine, and 250 μg/ml of the aminoglycoside antibiotic G418. Cells were incubated in a 5% CO2, humidified incubator at 37° C.
In pre-incubation studies, test compound was added to cells for 30 minutes at 37° C. prior to the addition of fluorescent substrate. […] For real-time measurements, compounds were either preincubated (as above) or mixed with substrate prior to addition, and kinetic measurements, relative fluorescence units (RFU integrated over 0.5 ms),were made using a cycle time of 1 min.

T2 sequence (P31645 whole entry): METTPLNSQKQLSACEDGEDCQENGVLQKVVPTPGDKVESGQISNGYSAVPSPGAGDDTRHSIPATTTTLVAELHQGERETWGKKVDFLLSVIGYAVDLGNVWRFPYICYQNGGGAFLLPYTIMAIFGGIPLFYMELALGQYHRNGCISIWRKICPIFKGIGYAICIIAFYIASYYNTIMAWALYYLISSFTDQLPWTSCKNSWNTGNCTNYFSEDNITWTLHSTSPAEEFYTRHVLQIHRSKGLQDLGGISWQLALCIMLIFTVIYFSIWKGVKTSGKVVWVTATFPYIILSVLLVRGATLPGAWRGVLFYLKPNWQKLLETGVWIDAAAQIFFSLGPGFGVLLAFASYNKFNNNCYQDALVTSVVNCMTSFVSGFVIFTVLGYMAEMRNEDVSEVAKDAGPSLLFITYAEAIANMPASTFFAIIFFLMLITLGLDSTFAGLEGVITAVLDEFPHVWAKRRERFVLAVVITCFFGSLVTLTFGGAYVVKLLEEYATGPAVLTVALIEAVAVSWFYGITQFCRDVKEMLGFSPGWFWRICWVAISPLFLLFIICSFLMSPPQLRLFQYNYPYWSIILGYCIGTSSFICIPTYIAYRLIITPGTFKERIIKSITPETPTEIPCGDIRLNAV
T1 sequence (P31645 whole entry): as above

As for `O=C(O)c1ccc(S(=O)(=O)NC[C@@H](Oc2ccc(C(F)(F)F)cc2)[C@H]2CCNC2)cc1` [Example 3-21, 4-[(S)-2-(S)-Pyrrolidin-3-yl-2-(4-trifluoromethylphenoxy)ethylsulfamoyl]-benzoic acid], the Ki in test [1] was at most 100 nM. The IC50 in test [2] was at most 100 nM.
Take `CS(=O)(=O)NC[C@@H](Oc1ccc(C(F)(F)F)cc1)[C@H]1CCNC1` [Example 3-1, N-[(S)-2-(S)-Pyrrolidin-3-yl-2-(4-trifluoromethylphenoxy)ethyl]-methanesulfonamide]: in test [1], the Ki was at most 10 nM. In test [2], the IC50 is at most 10 nM.
As for `CN(C)S(=O)(=O)C[C@@H](Oc1ccc(C(F)(F)F)cc1)[C@H]1CCNC1` [Example 7-1, (S)-2-(S)-Pyrrolidin-3-yl-2-(4-trifluoromethylphenoxy)ethanesulfonic acid dimethylamide], the IC50 in test [2] was at most 10 nM.
Still for that read-out and setting: the same measure for `O=S(=O)(NC[C@@H](Oc1ccc(C(F)(F)F)cc1)[C@H]1CCNC1)c1cnc[nH]1` [Example 3-13, 3H-Imidazole-4-sulfonic acid [(S)-2-(S)-pyrrolidin-3-yl-2-(4-trifluoromethylphenoxy)ethyl]amide]: at most 100 nM; for `COc1ccc(S(=O)(=O)NCC(Oc2ccc(C(F)(F)F)cc2)C2CCNC2)cc1` [Example 3-23, 4-Methoxy-N-[(S)-2-(S)-pyrrolidin-3-yl-2-(4-trifluoromethylphenoxy)ethyl]bensenesulfonamide]: at most 10 nM.
The same measure, in the same setting: under `CC(=O)Nc1cccc(S(=O)(=O)NC[C@@H](Oc2ccc(C(F)(F)F)cc2)[C@H]2CCNC2)c1` [Example 3-26, N-{3-[(S)-2-(S)-Pyrrolidin-3-yl-2-(4-trifluoromethylphenoxy)ethylsulfamoyl]phenyl}acetamide] stands at most 10 nM; under `CS(=O)(=O)CS(=O)(=O)NC[C@@H](Oc1ccc(C(F)(F)F)cc1)[C@H]1CCNC1` [Example 3-12, C-Methanesulfonyl-N-[(S)-2-(S)-pyrrolidin-3-yl-2-(4-trifluoromethylphenoxy)ethyl]methanesulfonamide], at most 10 nM.
As for `CN(C[C@@H](Oc1ccc(C(F)(F)F)cc1)[C@H]1CCNC1)S(C)(=O)=O` [Example 3-3, N-Methyl-N-[(S)-2-(S)-pyrrolidin-3-yl-2-(4-trifluoromethylphenoxy)ethyl]-methanesulfonamide], the IC50 in test [2] was at most 10 nM.
Still for that read-out and setting: the same measure for `CS(=O)(=O)c1ccc(S(=O)(=O)NC[C@@H](Oc2ccc(C(F)(F)F)cc2)[C@H]2CCNC2)cc1` [Example 3-27, 4-Methanesulfonyl-N-[(S)-2-(S)-pyrrolidin-3-yl-2-(4-trifluoromethylphenoxy)ethyl]benzenesulfonamide]: at most 10 nM.
The same measure, in the same setting: under `O=S(=O)(NC[C@@H](Oc1ccc(C(F)(F)F)cc1)[C@H]1CCNC1)c1ccc(-c2cnco2)cc1` [Example 2, 4-Oxazol-5-yl-N—[(S)-2-(S)-pyrrolidin-3-yl-2-(4-trifluoromethylphenoxy)ethyl]benzenesulfonamide] stands at most 10 nM.
In the case of `CC(=O)N(C[C@@H](Oc1ccc(C(F)(F)F)cc1)[C@H]1CCNC1)S(C)(=O)=O` [Example 3-4, N-Acetyl-N-[(S)-2-(S)-pyrrolidin-3-yl-2-(4-trifluoromethylphenoxy)ethyl]-methanesulfonamide], the Ki in test [1] is at most 10 nM. The IC50 in test [2] is at most 10 nM.
Regarding `NC(=O)NS(=O)(=O)NC[C@@H](Oc1ccc(C(F)(F)F)cc1)[C@H]1CCNC1` [Example 3-10, N[(S)-2-(S)-pyrrolidin-3-yl-2-(4-trifluoromethylphenoxy)ethyl]sulfonylurea], in test [2], the “SERT pIC50” value is “≧7.0”.
Consider `COCCc1ccc(S(=O)(=O)NC[C@@H](Oc2ccc(C(F)(F)F)cc2)[C@H]2CCNC2)cc1` [Example 3-24, 4-(2-Methoxyethyl)-N-[(S)-2-(S)-pyrrolidin-3-yl-2-(4-trifluoromethylphenoxy)ethyl]benzenesulfonamide], for which the IC50 in test [2] was at most 10 nM.
